target: Acetylcholinesterase (Electrophorus electricus, UniProt O42275); test: Inhibition constant (Ki) against electric eel Acetylcholinesterase as Km/Vmax versus inhibitor concentration replot
Sequence (O42275 whole entry): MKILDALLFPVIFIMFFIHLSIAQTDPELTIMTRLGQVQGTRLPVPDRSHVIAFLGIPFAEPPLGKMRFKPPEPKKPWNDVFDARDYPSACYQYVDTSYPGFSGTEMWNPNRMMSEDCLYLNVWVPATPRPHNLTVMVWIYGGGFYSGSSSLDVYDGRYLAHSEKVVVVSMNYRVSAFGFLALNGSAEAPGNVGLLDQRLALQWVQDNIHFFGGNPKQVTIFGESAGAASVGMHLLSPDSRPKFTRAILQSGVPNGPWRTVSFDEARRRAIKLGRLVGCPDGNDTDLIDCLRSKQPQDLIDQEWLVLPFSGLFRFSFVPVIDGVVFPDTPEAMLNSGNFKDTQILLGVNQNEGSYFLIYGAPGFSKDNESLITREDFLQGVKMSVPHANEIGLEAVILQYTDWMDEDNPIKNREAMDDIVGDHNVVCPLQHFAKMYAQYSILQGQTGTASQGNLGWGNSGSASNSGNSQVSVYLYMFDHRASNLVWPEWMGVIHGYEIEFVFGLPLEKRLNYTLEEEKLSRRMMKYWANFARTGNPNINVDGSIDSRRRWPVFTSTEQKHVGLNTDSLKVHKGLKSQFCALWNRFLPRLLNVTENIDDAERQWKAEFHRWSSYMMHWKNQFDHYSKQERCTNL

Compound	Ki
Fc1cccc(F)c1-c1c2nc(c(-c3c(F)cccc3F)c3ccc([nH]3)c(-c3c(F)cccc3F)c3ccc([nH]3)c(-c3c(F)cccc3F)c3nc1C=C3)C=C2	0.005 µM
Fc1ccccc1-c1c2nc(c(-c3ccccc3F)c3ccc([nH]3)c(-c3ccccc3F)c3ccc([nH]3)c(-c3ccccc3F)c3nc1C=C3)C=C2	50.9 µM
Oc1cccc(-c2c3nc(c(-c4cccc(O)c4)c4ccc([nH]4)c(-c4cccc(O)c4)c4ccc([nH]4)c(-c4cccc(O)c4)c4nc2C=C4)C=C3)c1	29.6 µM
Fc1ccc(-c2c3nc(c(-c4ccc(F)cc4F)c4ccc([nH]4)c(-c4ccc(F)cc4F)c4ccc([nH]4)c(-c4ccc(F)cc4F)c4nc2C=C4)C=C3)c(F)c1	0.012 µM
Fc1nc(F)c(F)c(-c2c3nc(c(-c4c(F)c(F)nc(F)c4F)c4ccc([nH]4)c(-c4c(F)c(F)nc(F)c4F)c4ccc([nH]4)c(-c4c(F)c(F)nc(F)c4F)c4nc2C=C4)C=C3)c1F	7.29 µM
Fc1cnc(F)c(F)c1-c1c2nc(c(-c3c(F)cnc(F)c3F)c3ccc([nH]3)c(-c3c(F)cnc(F)c3F)c3ccc([nH]3)c(-c3c(F)cnc(F)c3F)c3nc1C=C3)C=C2	2.85 µM
Oc1ccccc1-c1c2nc(c(-c3ccccc3O)c3ccc([nH]3)c(-c3ccccc3O)c3ccc([nH]3)c(-c3ccccc3O)c3nc1C=C3)C=C2	18.3 µM
Fc1cccc(-c2c3nc(c(-c4cccc(F)c4)c4ccc([nH]4)c(-c4cccc(F)c4)c4ccc([nH]4)c(-c4cccc(F)c4)c4nc2C=C4)C=C3)c1	9.7 µM
Oc1ccc(O)c(-c2c3nc(c(-c4cc(O)ccc4O)c4ccc([nH]4)c(-c4cc(O)ccc4O)c4ccc([nH]4)c(-c4cc(O)ccc4O)c4nc2C=C4)C=C3)c1	2.5 µM
C[n+]1ccc(-c2c3nc(c(-c4cc[n+](C)cc4F)c4ccc([nH]4)c(-c4cc[n+](C)cc4F)c4ccc([nH]4)c(-c4cc[n+](C)cc4F)c4nc2C=C4)C=C3)c(F)c1.Cc1ccc(S(=O)(=O)[O-])cc1.Cc1ccc(S(=O)(=O)[O-])cc1.Cc1ccc(S(=O)(=O)[O-])cc1.Cc1ccc(S(=O)(=O)[O-])cc1	3.06 µM
Fc1cnccc1-c1c2nc(c(-c3ccncc3F)c3ccc([nH]3)c(-c3ccncc3F)c3ccc([nH]3)c(-c3ccncc3F)c3nc1C=C3)C=C2	5.08 µM

test system: Gallus gallus; test: Compound was tested in vivo for antiangiogenic activity (10 microg dose/ egg) on chorioallantoic membrane of growing chick embryos; format: functional

Compound	Inhibition
C[n+]1ccc(-c2c3nc(c(-c4cc[n+](C)cc4F)c4ccc([nH]4)c(-c4cc[n+](C)cc4F)c4ccc([nH]4)c(-c4cc[n+](C)cc4F)c4nc2C=C4)C=C3)c(F)c1.Cc1ccc(S(=O)(=O)[O-])cc1.Cc1ccc(S(=O)(=O)[O-])cc1.Cc1ccc(S(=O)(=O)[O-])cc1.Cc1ccc(S(=O)(=O)[O-])cc1	60%

Source: ChEMBL document CHEMBL1133210, “Synthesis of tetrakis(multifluoro-4-pyridyl)porphin derivatives as acetylcholinesterase inhibitors” (Bioorg Med Chem Lett, 2000)
